Experimental data taken from US20120071475A1, “UREA DERIVATIVES HAVING PI3K-INHIBITING ACTIVITY” (SHIONOGI & CO., LTD., priority 2009, published 2012).

Key:
PI3Kγ = PI3Kγ (Homo sapiens, UniProt P48736); test: PI3Kγ inhibitory activity (PI3-kinase HTRF assay, inhibition ratio); assay type: biochemical; conditions: 0.5 h, compound at 10 μmol/L; read-out: PI3Kg Inhibition Ratio % (10 μM)
Method in brief: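 Compound at 10 μmol/L preincubated 10 min with PI3Kγ and PIP2 substrate, then reacted with ATP for 30 minutes at room temperature; the compound, substrate and ATP figures as printed (40 μmol/L each) are solution concentrations. HTRF 665/620 nm ratio read after 18 hours. Inhibition ratio calculated against no-compound (100%) and no-enzyme (0%) controls.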

AKT phosphorylation = AKT phosphorylation inhibitory activity in MCP-1 stimulated THP-1 cells (sandwich ELISA); assay type: cell-based, Human; conditions: Homo sapiens, compound at 1 μmol/L, MCP-1 stimulation, read-out: AKT phosphorylation inhibition ratio
Method in brief: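 THP-1 cells (6.7×10^6/mL in HBSS) were preincubated with compound at 1 μmol/L for 5 min at 37 °C, then stimulated for 60 s with HBSS containing 1.2 μg/mL MCP-1 and lysed. Phospho-Akt Ser473/AKT1 sandwich ELISA was read at A450. % inhibition: no compound = 100% activity, no MCP-1 = 0%.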

[1] = Metabolic stability test (pooled human liver microsome); assay type: in vitro ADME; conditions: percentage of test compound remained after 30 minutes, pooled human liver microsome 0.5 mg protein/mL, 1 mmol/L NADPH, 37° C., compound 0.5 μM
Method in brief: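 Pooled human liver microsomes (0.5 mg protein/mL) incubated with compound and 1 mmol/L NADPH at 37° C. in pH 7.4 Tris buffer for 0 or 30 min. Parent quantified by LC/MS/MS after methanol/acetonitrile quench; value is % remaining at 30 min versus 0 min.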

[2] = target: T1, human ether-a-go-go related gene (hERG) channel (Homo sapiens, UniProt Q12809); test: hERG test (whole-cell patch-clamp, IKr in HEK293 cells); assay type: cell-based; conditions: inhibition of maximum tail current (IKr), HEK293 cell expressing hERG, compound 1 μM, 10 minutes; 1 µM
T1 construct: expressed in transfected cells; host or cells: HEK293
T1 sequence (Q12809 whole entry): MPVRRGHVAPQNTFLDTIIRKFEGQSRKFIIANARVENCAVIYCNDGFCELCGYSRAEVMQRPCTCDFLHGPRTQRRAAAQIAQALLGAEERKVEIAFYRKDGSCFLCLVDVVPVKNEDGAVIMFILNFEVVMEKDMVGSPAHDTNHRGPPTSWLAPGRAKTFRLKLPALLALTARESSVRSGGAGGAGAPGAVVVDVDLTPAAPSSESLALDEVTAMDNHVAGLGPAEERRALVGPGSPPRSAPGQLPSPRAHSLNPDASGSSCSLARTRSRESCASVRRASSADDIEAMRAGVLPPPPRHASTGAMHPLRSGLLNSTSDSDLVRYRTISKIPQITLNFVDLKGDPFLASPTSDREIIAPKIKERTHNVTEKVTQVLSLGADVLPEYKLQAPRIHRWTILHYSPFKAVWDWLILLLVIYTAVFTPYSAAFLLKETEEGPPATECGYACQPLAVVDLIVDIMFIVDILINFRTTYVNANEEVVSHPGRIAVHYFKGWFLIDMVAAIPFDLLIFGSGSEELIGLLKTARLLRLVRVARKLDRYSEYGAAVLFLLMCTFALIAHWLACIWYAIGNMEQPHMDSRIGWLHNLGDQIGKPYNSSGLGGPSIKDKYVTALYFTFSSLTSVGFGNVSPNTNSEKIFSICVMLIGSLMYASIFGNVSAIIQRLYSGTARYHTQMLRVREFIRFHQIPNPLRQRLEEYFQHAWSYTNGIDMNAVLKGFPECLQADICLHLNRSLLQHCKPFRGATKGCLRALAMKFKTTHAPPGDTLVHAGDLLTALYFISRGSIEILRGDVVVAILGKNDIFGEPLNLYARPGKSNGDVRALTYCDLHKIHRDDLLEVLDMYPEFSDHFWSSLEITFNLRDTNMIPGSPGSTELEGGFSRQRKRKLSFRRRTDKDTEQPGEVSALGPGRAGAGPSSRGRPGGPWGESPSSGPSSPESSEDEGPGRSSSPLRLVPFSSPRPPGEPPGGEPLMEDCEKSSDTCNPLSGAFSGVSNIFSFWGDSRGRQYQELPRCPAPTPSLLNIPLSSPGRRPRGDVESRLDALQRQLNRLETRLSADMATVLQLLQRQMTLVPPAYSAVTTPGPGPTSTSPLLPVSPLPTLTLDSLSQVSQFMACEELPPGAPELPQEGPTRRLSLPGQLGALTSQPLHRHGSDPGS
Method in brief: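 hERG-expressing HEK293 cells, automated whole-cell patch clamp: hold −80 mV, +50 mV for 2 s, then −50 mV for 2 s to record IKr tail current. Compound in extracellular solution (pH 7.4) for 10 min at room temperature; inhibition of maximum tail current calculated versus pre-application and compared with 0.1% DMSO vehicle.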

CYP3A4 = target: T2, CYP3A4 (Homo sapiens, UniProt P08684); test: CYP3A4 fluorescence MBI test; assay type: in vitro ADME; conditions: difference in IC50 with 0 or 30 minutes pre-reaction; CYP3A4 expressed in E. coli, substrate 7-BFC
T2 construct: host or cells: E. coli
T2 sequence (P08684 whole entry): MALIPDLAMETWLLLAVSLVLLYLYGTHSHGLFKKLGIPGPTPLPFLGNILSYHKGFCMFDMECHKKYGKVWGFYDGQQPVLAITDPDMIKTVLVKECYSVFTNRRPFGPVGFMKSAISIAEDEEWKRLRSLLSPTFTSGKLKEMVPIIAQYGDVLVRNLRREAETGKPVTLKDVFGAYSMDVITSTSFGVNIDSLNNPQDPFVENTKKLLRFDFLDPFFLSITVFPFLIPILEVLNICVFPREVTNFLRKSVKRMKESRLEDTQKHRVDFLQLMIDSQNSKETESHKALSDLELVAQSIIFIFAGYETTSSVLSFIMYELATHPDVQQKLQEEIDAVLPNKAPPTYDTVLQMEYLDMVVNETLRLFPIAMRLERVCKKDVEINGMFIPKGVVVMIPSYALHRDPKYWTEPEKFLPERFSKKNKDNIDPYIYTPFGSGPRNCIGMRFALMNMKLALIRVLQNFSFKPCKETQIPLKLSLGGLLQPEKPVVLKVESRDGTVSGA
Method in brief: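 E. coli-expressed CYP3A4 debenzylating 5.6 μmol/L 7-BFC to fluorescent 7-HFC (Ex 420/Em 535 nm) in K-Pi pH 7.4 at 25° C, 15 min reaction. NADPH pre-incubation of 0 or 30 min, with 10-fold dilution before reaction. IC50 from 0.625–20 μmol/L (6 points); (+) for an IC50 shift ≥5 μmol/L, (−) for ≤3 μmol/L.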

[3] = BA test (oral absorbability, bioavailability); assay type: in vivo
Protocol: An experimental material and a method for examining oral absorbability
(1) Animals used: rats or mice were used. (2) Breeding condition: chow and sterilized tap water were allowed to be taken in freely. (3) Setting of a dosage and grouping: a predetermined dosage was administered orally or intravenously. Groups were formed as shown below. (A dosage varied depending on each compound)
Oral administration 1-30 mg/kg (n=2 to 3)
Intravenous administration 0.5-10 mg/kg (n=2 to 3)
(4) Preparation of administered liquid: In oral administration, a solution or suspension was administered. In intravenous administration, after solubilization, the administration was performed. (5) Method of Administration: In oral administration, compulsory administration to the stomach was conducted using an oral probe. In intravenous administration, administration from the caudal vein was conducted using a syringe with an injection needle. (6) Evaluation item: Blood was chronologically collected, and then the drug concentration in blood plasma was measured using a LC/MS/MS. (7) Statistical analysis: With regard to a shift in plasma concentration, the plasma concentration-time area under the curve (AUC) was calculated using a nonlinear least-squares program WinNonlin®. Bioavailability (BA) was calculated from the AUCs of the oral administration group and the intravenous administration group, respectively.

PI3Kγ, sequence (P48736 whole entry, species assumed): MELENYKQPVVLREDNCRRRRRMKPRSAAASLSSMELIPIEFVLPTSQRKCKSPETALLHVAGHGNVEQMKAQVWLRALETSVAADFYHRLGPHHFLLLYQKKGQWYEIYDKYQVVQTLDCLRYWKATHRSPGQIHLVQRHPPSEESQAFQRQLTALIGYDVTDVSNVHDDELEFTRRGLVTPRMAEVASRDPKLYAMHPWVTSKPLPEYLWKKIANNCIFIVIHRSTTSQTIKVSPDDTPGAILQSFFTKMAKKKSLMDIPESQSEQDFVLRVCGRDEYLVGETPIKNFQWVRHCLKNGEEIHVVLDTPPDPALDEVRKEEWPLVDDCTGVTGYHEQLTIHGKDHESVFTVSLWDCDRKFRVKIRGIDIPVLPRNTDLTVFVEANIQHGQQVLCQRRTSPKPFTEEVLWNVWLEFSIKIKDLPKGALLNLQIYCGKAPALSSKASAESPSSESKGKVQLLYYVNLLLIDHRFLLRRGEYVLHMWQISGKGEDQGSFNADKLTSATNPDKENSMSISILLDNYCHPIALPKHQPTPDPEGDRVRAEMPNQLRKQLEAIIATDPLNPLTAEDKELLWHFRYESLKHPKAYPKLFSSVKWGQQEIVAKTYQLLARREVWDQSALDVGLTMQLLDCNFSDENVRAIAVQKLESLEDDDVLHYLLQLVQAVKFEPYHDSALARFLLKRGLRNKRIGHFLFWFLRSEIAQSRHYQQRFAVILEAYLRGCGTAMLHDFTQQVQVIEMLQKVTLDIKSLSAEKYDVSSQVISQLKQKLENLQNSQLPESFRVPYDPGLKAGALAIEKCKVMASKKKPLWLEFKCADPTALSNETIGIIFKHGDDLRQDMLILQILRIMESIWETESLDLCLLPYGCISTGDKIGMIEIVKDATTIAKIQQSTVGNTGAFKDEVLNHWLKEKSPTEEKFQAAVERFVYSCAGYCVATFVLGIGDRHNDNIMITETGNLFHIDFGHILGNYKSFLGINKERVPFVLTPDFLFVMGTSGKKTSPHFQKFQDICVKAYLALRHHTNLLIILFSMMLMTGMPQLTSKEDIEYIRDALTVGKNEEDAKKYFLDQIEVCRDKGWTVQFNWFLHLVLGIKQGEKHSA

inhibition at 10 µM (PI3Kγ) [%]	hLMS_ox(at 0.5 μM) % [1] [%]	BA (Rat, 1 mg/kg, Methylcellulose suspension Oral Administration) [3] [%]	SMILES	inhibition at 1 µM (AKT phosphorylation) [%]	hERG(at 1 μM) % Inhibition [2] [%]	MBI (CYP3A4)
≥ 95	82.6	–	COc1cc(N2CCc3nc(NC(=O)Nc4ccccc4C(=O)NC(C)C(O)C(F)(F)F)sc3C2)nc(OC)n1 (stereo not drawn) [Compound I-138]	≥ 95	2.8	–
–	–	40.9	COc1cc(N2CCc3nc(NC(=O)Nc4ccccc4C(=O)NC(C)C)sc3C2)ccn1 [Compound I-52]	–	–	(−) (When 3 μmol/L or less, the compound is shown as (−))
